Data reported in publication PMC5190008, “BO-1055, a novel DNA cross-linking agent with remarkable low myelotoxicity shows potent activity in sarcoma models” (Oncotarget, 2016).

Assays:
[1] = test system: A673 spheroids; assay: Spheroid assay in 3D culture (methylcellulose); assay type: cell-based, human; settings: A673 spheroids in methylcellulose, scored 14 days after plating
Description: A673 cells were seeded on flat bottom non attachment 24 well plates (1000 cells/well) in triplicate using 1.2 % methylcellulose (Dow Chemical, Waterloo, NY) mixed with 20% FCS and specified concentrations of BO-1055 or 4HC as shown in Figure 1D. Samples were incubated at 37°C / 5 % CO2 and colonies were scored 14 days after plating.

[2] = test system: patient derived Ewing sarcoma xenografts; assay: Cyclophosphamide resistant patient-derived Ewing sarcoma xenografts; assay type: in vivo, NSG mice; settings: cyclophosphamide MTD 70mg/kg i.p. q2d for 3 doses
Description: Patient derived xenografts were established from Ewing sarcoma patients who progressed through first line chemotherapy that included cyclophosphamide, doxorubicin, vincristine, ifosfamide and etoposide (PS3). When these Ewing sarcoma xenografts (n = 10) reached 100mm^3, they were randomized to control and treatment groups.
All mouse experiments were performed at the animal core facility at MSKCC under an approved protocol following the IACUC guidelines. Five to seven-week-old NOD/SCID IL2R gamma null (NSG) mice (bred at the Mouse Genetics Core Facility, MSKCC) were used for in vivo experiments. All mouse experiments were done following the IACUC guidelines at the animal facility at MSKCC. Tumors were induced using 10^6 A673 cells or A204 cells in 0.2ml 1:1 cellular medium, Matrigel matrix (BD Bioscience, Bedford, MA) and injected subcutaneously (s.q) into the right flank. The tumors were measured every 3 d with a caliper, and the diameters were recorded. Tumor volume was calculated by the formula a^2 b/2 where ‘a’ is the smallest and ‘b’ is the largest diameter. When the tumors reached 100mm^3, we randomized mice into control and drug treatment groups. Treatment groups received BO-1055 by tail vein injection at 10mg/kg, 20mg/kg and 30mg/kg q2d x 5 doses for mice bearing A673 xenografts. BO-1055 was given at 30mg/kg q2d x 5 doses for mice bearing A204 xenografts. […]

[3] = test system: CCRF-CEM/Taxol cells; set-up: method as in PMID 21106377; settings: CCRF-CEM/Taxol ref 6; cited from earlier work

For O=P1(N(CCCl)CCCl)NC(OO)CCO1 (stereo not drawn) [4-HC, 4-hydroperoxy cyclophosphamide, reference compound], the “concentration giving complete inhibition of spheroids” value [1] was 5 µM.
With O=P1(N(CCCl)CCCl)NCCCO1 (stereo not drawn) [cyclophosphamide, reference compound] the tumor growth [2] was “not inhibited”.
In the case of CC(=O)O[C@H]1C(=O)[C@@]2(C)[C@H]([C@H](OC(=O)c3ccccc3)[C@]3(O)C[C@H](OC(=O)[C@H](O)[C@@H](NC(=O)c4ccccc4)c4ccccc4)C(C)=C1C3(C)C)[C@]1(OC(C)=O)CO[C@@H]1C[C@@H]2O [taxol, reference compound], the “resistance of CCRF-CEM/Taxol cells” value [3] is given as 330 fold.
